Measurements from patent US8952024B2, “Herbicidal pyrimidone derivatives” (E I du Pont de Nemours and Company, priority 2009, dated 2015).

Experiments:
Format in all cases: in vivo
[1] = tested on: rice (Oryza sativa); experiment: Test B flooded paddy test; conditions: for Plant response rating, Flood, Rice: 250 g ai/ha, flooded paddy test, visual rating on 0 to 100 scale (0 no effect, 100 complete control) after 13 to 15 days; for Plant response rating, Rice: Flood (flooded paddy test), 13 to 15 days
How it was run: (§1)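 Ratings are visual, 0–100 (100 = complete control), taken versus untreated controls 13 to 15 days after treatment in the greenhouse. Compound went straight into paddy water held 3 cm above soil, applied to 2-leaf-stage plants of four species.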

[2] = tested on: ducksalad (Heteranthera limosa); experiment: Test B flooded paddy test; conditions: for Plant response rating, Flood, Ducksalad: 250 g ai/ha, flooded paddy test, visual rating on 0 to 100 scale (0 no effect, 100 complete control) after 13 to 15 days; for Plant response rating, Ducksalad: Flood (flooded paddy test), 13 to 15 days
How it was run: as §1

[3] = tested on: windgrass (Apera spica-venti); experiment: Test B postemergence plant response; conditions: for Windgrass plant response rating (0 to 100 scale): 62 g ai/ha, postemergence, 0 is no effect, 100 is complete control; for Plant response rating, Windgrass: Postemergence
How it was run: (§2)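 Visual ratings from 0 (no effect) to 100 (complete control), made against controls 13–15 days after treatment, kept in a greenhouse. Compounds were applied postemergence to potted plants at the 1- to 4-leaf stage (2–18 cm).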

[4] = tested on: chickweed (Stellaria media); experiment: Test B postemergence plant response; conditions: for Chickweed plant response rating (0 to 100 scale): 62 g ai/ha, postemergence, 0 is no effect, 100 is complete control; for Plant response rating, Chickweed: Postemergence
How it was run: as §2

[5] = tested on: canarygrass (Phalaris minor); experiment: Test B postemergence plant response; conditions: for Canarygrass plant response rating (0 to 100 scale): 62 g ai/ha, postemergence, 0 is no effect, 100 is complete control; for Plant response rating, Canarygrass: Postemergence
How it was run: as §2

[6] = tested on: velvetleaf (Abutilon theophrasti); experiment: Test A pre-/postemergence plant response
How it was run: (§3)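 Injury scores (0, no effect; 100, complete control) come from visual comparison with untreated controls roughly ten days post-treatment. Test chemicals in a surfactant-containing non-phytotoxic solvent were applied as a directed soil spray preemergence and to one- to two-leaf seedlings postemergence.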

[7] = tested on: giant foxtail (Setaria faberii); experiment: Test A pre-/postemergence plant response
How it was run: as §3

[8] = tested on: large crabgrass (Digitaria sanguinalis); experiment: Test A pre-/postemergence plant response
How it was run: as §3

[9] = tested on: morningglory (Ipomoea spp.); experiment: Test A pre-/postemergence plant response
How it was run: as §3

[10] = tested on: corn (Zea mays); experiment: Test A pre-/postemergence plant response
How it was run: as §3

[11] = tested on: pigweed (Amaranthus retroflexus); experiment: Test A pre-/postemergence plant response
How it was run: as §3

[12] = tested on: wheat (Triticum aestivum); experiment: Test A pre-/postemergence plant response
How it was run: as §3

[13] = tested on: barnyardgrass (Echinochloa crus-galli); experiment: Test A pre-/postemergence plant response
How it was run: as §3

[14] = 62 g ai/ha, scale of 0 to 100 where 0 is no effect and 100 is complete control
[15] = 125 g ai/ha, scale 0 to 100, 0 is no effect, 100 is complete control
[16] = Flood, 31 g ai/ha, scale 0 to 100 (0 no effect, 100 complete control)
[17] = 31 g ai/ha, 0 to 100 scale (0 no effect, 100 complete control)
[18] = 125 g ai/ha, scale 0 to 100 (0 no effect, 100 complete control)
[19] = 250 g ai/ha, scale 0 to 100 (0 no effect, 100 complete control), 13 to 15 days
[20] = Postemergence, 125 g ai/ha, 0 to 100 scale where 0 is no effect and 100 is complete control
[21] = Postemergence, 500 g ai/ha, 0 to 100 scale, 0 = no effect, 100 = complete control, approx. ten days
[22] = Preemergence, 125 g ai/ha, 0 to 100 scale, 0 = no effect, 100 = complete control
[23] = Preemergence, 500 g ai/ha, 0 to 100 scale, 0 = no effect, 100 = complete control
[24] = Preemergence, 500 g ai/ha, visual injury, 0 to 100 scale (0 no effect, 100 complete control), approx. ten days

CCCn1c(-c2cccc(C(F)(F)F)c2)ncc(C(=O)C2=C(O)CCCC2=O)c1=O [Compound 155]
Plant response rating, Flood, Rice [1]: 45 | Plant response rating, Rice [1, 14]: 0 | Plant response rating, Rice [1, 15]: 25 | Rice plant response rating [1, 16]: 0 | Plant response rating, Flood, Ducksalad [2]: 95 | Plant response rating, Ducksalad [2, 14]: 60 | Plant response rating, Ducksalad [2, 15]: 85 | Ducksalad plant response rating [2, 16]: 0 | Windgrass plant response rating (0 to 100 scale) ([3]; 13 to 15 days): 55 | Plant response rating, Windgrass [3, 17]: 50 | Plant response rating, Windgrass [3, 18]: 70 | Plant response rating, Windgrass [3, 19]: 85 | Chickweed plant response rating (0 to 100 scale) ([4]; 13 to 15 days): 100 | Plant response rating, Chickweed [4, 17]: 100 | Plant response rating, Chickweed [4, 18]: 100 | Plant response rating, Chickweed [4, 19]: 100 | Canarygrass plant response rating (0 to 100 scale) ([5]; 13 to 15 days): 35 | Plant response rating, Canarygrass [5, 17]: 10 | Plant response rating, Canarygrass [5, 18]: 50 | Plant response rating, Canarygrass [5, 19]: 65 | Plant response rating, Velvetleaf [6, 20]: 100 | Plant response rating, Velvetleaf [6, 21]: 100 | Plant response rating, Velvetleaf [6, 22]: 60 | Plant response rating, Velvetleaf [6, 23]: 100 | Plant response rating, Foxtail, Giant [7, 20]: 80 | Plant response rating, Foxtail, Giant [7, 21]: 90 | Plant response rating, Foxtail, Giant [7, 22]: 30 | Plant response rating, Foxtail, Giant [7, 24]: 60 | Plant response rating, Crabgrass, Large [8, 20]: 70 | Plant response rating, Crabgrass, Large [8, 21]: 90 | Plant response rating, Crabgrass, Large [8, 22]: 60 | Plant response rating, Crabgrass, Large [8, 24]: 90 | Plant response rating, Morningglory [9, 20]: 100 | Plant response rating, Morningglory [9, 21]: 100 | Plant response rating, Morningglory [9, 22]: 0 | Plant response rating, Morningglory [9, 24]: 0 | Plant response rating, Corn [10, 20]: 20 | Plant response rating, Corn [10, 21]: 40 | Plant response rating, Corn [10, 22]: 0 | Plant response rating, Corn [10, 24]: 30 | Plant response rating, Pigweed [11, 20]: 100 | Plant response rating, Pigweed [11, 21]: 100 | Plant response rating, Pigweed [11, 22]: 90 | Plant response rating, Pigweed [11, 24]: 90 | Plant response rating, Wheat [12, 20]: 0 | Plant response rating, Wheat [12, 21]: 30 | Plant response rating, Wheat [12, 22]: 0 | Plant response rating, Wheat [12, 23]: 0 | Plant response rating, Barnyardgrass [13, 20]: 90 | Plant response rating, Barnyardgrass [13, 21]: 100 | Plant response rating, Barnyardgrass [13, 22]: 10 | Plant response rating, Barnyardgrass [13, 24]: 90

CCCn1c(-c2cccc(Br)c2)ncc(C(=O)C2=C(O)CCCC2=O)c1=O [Compound 141]
Plant response rating, Flood, Rice [1]: 35 | Plant response rating, Rice [1, 14]: 0 | Plant response rating, Flood, Ducksalad [2]: 85 | Plant response rating, Ducksalad [2, 14]: 75 | Windgrass plant response rating (0 to 100 scale) ([3]; 13 to 15 days): 35 | Plant response rating, Windgrass [3, 17]: 25 | Plant response rating, Windgrass [3, 18]: 40 | Plant response rating, Windgrass [3, 19]: 50 | Chickweed plant response rating (0 to 100 scale) ([4]; 13 to 15 days): 85 | Plant response rating, Chickweed [4, 17]: 60 | Plant response rating, Chickweed [4, 18]: 90 | Plant response rating, Chickweed [4, 19]: 95 | Canarygrass plant response rating (0 to 100 scale) ([5]; 13 to 15 days): 0 | Plant response rating, Canarygrass [5, 17]: 0 | Plant response rating, Canarygrass [5, 18]: 5 | Plant response rating, Canarygrass [5, 19]: 5 | Plant response rating, Velvetleaf [6, 20]: 100 | Plant response rating, Velvetleaf [6, 21]: 100 | Plant response rating, Velvetleaf [6, 22]: 70 | Plant response rating, Velvetleaf [6, 24]: 100 | Plant response rating, Foxtail, Giant [7, 20]: 80 | Plant response rating, Foxtail, Giant [7, 21]: 90 | Plant response rating, Foxtail, Giant [7, 22]: 40 | Plant response rating, Foxtail, Giant [7, 24]: 80 | Plant response rating, Crabgrass, Large [8, 20]: 80 | Plant response rating, Crabgrass, Large [8, 21]: 90 | Plant response rating, Crabgrass, Large [8, 22]: 80 | Plant response rating, Crabgrass, Large [8, 24]: 100 | Plant response rating, Morningglory [9, 20]: 70 | Plant response rating, Morningglory [9, 21]: 100 | Plant response rating, Morningglory [9, 22]: 0 | Plant response rating, Morningglory [9, 24]: 30 | Plant response rating, Corn [10, 20]: 20 | Plant response rating, Corn [10, 21]: 30 | Plant response rating, Corn [10, 22]: 0 | Plant response rating, Corn [10, 24]: 0 | Plant response rating, Pigweed [11, 20]: 90 | Plant response rating, Pigweed [11, 21]: 100 | Plant response rating, Pigweed [11, 22]: 70 | Plant response rating, Pigweed [11, 24]: 100 | Plant response rating, Wheat [12, 20]: 0 | Plant response rating, Wheat [12, 21]: 0 | Plant response rating, Wheat [12, 22]: 0 | Plant response rating, Wheat [12, 24]: 0 | Plant response rating, Barnyardgrass [13, 20]: 90 | Plant response rating, Barnyardgrass [13, 21]: 90 | Plant response rating, Barnyardgrass [13, 22]: 60 | Plant response rating, Barnyardgrass [13, 24]: 100
